Measurements published in ChEMBL document CHEMBL3044541, “Control of crown rot-causing fungal pathogens of banana by inorganic salts and a surfactant” (Crop Prot, 2007).
Activity calls are given as the source filed them. The calls are words filed in the database; no cut-off is given here.

What was measured:
Colletotrichum musae [1] = assay: Growth inhibition of Colletotrichum musae assessed as inhibition of mycelial growth up to 160 g/l incubated for 15 min followed by compound washout measured after 7 days in presence of surfactant APSA 80; format: functional, organism-based
Fusarium verticillioides [2] = assay: Growth inhibition of Fusarium verticillioides assessed as inhibition of mycelial growth up to 160 g/l incubated for 15 min followed by compound washout measured after 7 days in presence of surfactant APSA 80; format: functional, organism-based
Thielaviopsis paradoxa [3] = assay: Growth inhibition of Ceratocystis paradoxa assessed as inhibition of mycelial growth up to 160 g/l incubated for 15 min followed by compound washout measured after 7 days in absence of surfactant APSA 80; format: functional, organism-based
Colletotrichum musae [4] = assay: Growth inhibition of Colletotrichum musae assessed as inhibition of mycelial growth up to 160 g/l incubated for 15 min followed by compound washout measured after 7 days in absence of surfactant APSA 80; format: functional
Colletotrichum musae [5] = assay: Antifungal activity against Colletotrichum musae assessed as inhibition of conidium germination at 5 g/l incubated for 15 min followed by compound washout measured after 7 days by microscopic analysis in presence of surfactant APSA 80; format: functional, organism-based
Thielaviopsis paradoxa [6] = assay: Antifungal activity against Ceratocystis paradoxa assessed as inhibition of conidium germination at 5 g/l incubated for 15 min followed by compound washout measured after 7 days by microscopic analysis in presence of surfactant APSA 80; format: functional, organism-based
Lasiodiplodia theobromae [7] = assay: Antifungal activity against Lasiodiplodia theobromae assessed as inhibition of conidium germination at 5 g/l incubated for 15 min followed by compound washout measured after 2 days by microscopic analysis in absence of surfactant APSA 80; format: functional, organism-based
Thielaviopsis paradoxa [8] = assay: Antifungal activity against Ceratocystis paradoxa assessed as inhibition of conidium germination at 5 g/l incubated for 15 min followed by compound washout measured after 2 days by microscopic analysis in absence of surfactant APSA 80; format: functional, organism-based
Fusarium verticillioides [9] = assay: Antifungal activity against Fusarium verticillioides assessed as inhibition of conidium germination at 5 g/l incubated for 15 min followed by compound washout measured after 2 days by microscopic analysis in absence of surfactant APSA 80; format: functional, organism-based
Fusarium verticillioides [10] = assay: Antifungal activity against Fusarium verticillioides assessed as inhibition of conidium germination at 5 g/l incubated for 15 min followed by compound washout measured after 7 days by microscopic analysis in presence of surfactant APSA 80; format: functional, organism-based
Thielaviopsis paradoxa [11] = assay: Growth inhibition of Ceratocystis paradoxa assessed as inhibition of mycelial growth up to 160 g/l incubated for 15 min followed by compound washout measured after 7 days in presence of surfactant APSA 80; format: functional
Colletotrichum musae [12] = assay: Antifungal activity against Colletotrichum musae assessed as inhibition of conidium germination at 5 g/l incubated for 15 min followed by compound washout measured after 2 days by microscopic analysis in absence of surfactant APSA 80; format: functional, organism-based
Lasiodiplodia theobromae [13] = assay: Antifungal activity against Lasiodiplodia theobromae assessed as inhibition of conidium germination at 5 g/l incubated for 15 min followed by compound washout measured after 7 days by microscopic analysis in presence of surfactant APSA 80; format: functional, organism-based
Fusarium verticillioides [14] = assay: Growth inhibition of Fusarium verticillioides assessed as inhibition of mycelial growth up to 160 g/l incubated for 15 min followed by compound washout measured after 7 days in absence of surfactant APSA 80; format: functional
Thielaviopsis paradoxa [15] = assay: Antifungal activity against Ceratocystis paradoxa infected Cavendish banana fruit assessed as reduction in crown rot incubated for 15 min followed by compound washout measured after 2 weeks in presence of surfactant APSA 80 relative to control; format: functional; design: scale not given: the % may be the effect or the level left
Lasiodiplodia theobromae [16] = assay: Growth inhibition of Lasiodiplodia theobromae assessed as concentration required for inhibition of mycelial growth incubated for 15 min followed by compound washout measured after 7 days in absence of surfactant APSA 80; format: functional
Lasiodiplodia theobromae [17] = assay: Antifungal activity against Lasiodiplodia theobromae infected Cavendish banana fruit assessed as reduction in crown rot incubated for 15 min followed by compound washout measured after 1 week in absence of surfactant APSA 80 relative to control; format: functional; design: scale not given: the % may be the effect or the level left
Lasiodiplodia theobromae [18] = assay: Antifungal activity against Lasiodiplodia theobromae infected Cavendish banana fruit assessed as reduction in crown rot incubated for 15 min followed by compound washout measured after 2 weeks in absence of surfactant APSA 80 relative to control; format: functional; design: scale not given: the % may be the effect or the level left
Colletotrichum musae [19] = assay: Antifungal activity against Colletotrichum musae infected Cavendish banana fruit assessed as reduction in crown rot incubated for 15 min followed by compound washout measured after 2 weeks in absence of surfactant APSA 80 relative to control; format: functional; design: scale not given: the % may be the effect or the level left
Fusarium verticillioides [20] = assay: Antifungal activity against Fusarium verticillioides infected Cavendish banana fruit assessed as reduction in crown rot incubated for 15 min followed by compound washout measured after 2 weeks in absence of surfactant APSA 80 relative to control; format: functional; design: scale not given: the % may be the effect or the level left
Fusarium verticillioides [21] = assay: Antifungal activity against Fusarium verticillioides assessed as reduction in colony diameter at 10 to 160 g/l incubated for 15 min followed by compound washout measured after 7 days in absence of surfactant APSA 80 relative to control; format: functional; design: scale not given: the % may be the effect or the level left
Thielaviopsis paradoxa [22] = assay: Antifungal activity against Ceratocystis paradoxa assessed as reduction in colony diameter at 10 to 160 g/l incubated for 15 min followed by compound washout measured after 7 days in presence of surfactant APSA 80 relative to control; format: functional; design: scale not given: the % may be the effect or the level left
Fusarium verticillioides [23] = assay: Antifungal activity against Fusarium verticillioides infected Cavendish banana fruit assessed as reduction in crown rot incubated for 15 min followed by compound washout measured after 2 weeks in presence of surfactant APSA 80 relative to control; format: functional; design: scale not given: the % may be the effect or the level left
Colletotrichum musae [24] = assay: Antifungal activity against Colletotrichum musae infected Cavendish banana fruit assessed as reduction in crown rot incubated for 15 min followed by compound washout measured after 1 week in presence of surfactant APSA 80 relative to control; format: functional; design: scale not given: the % may be the effect or the level left
Colletotrichum musae [25] = assay: Antifungal activity against Colletotrichum musae infected Cavendish banana fruit assessed as reduction in crown rot incubated for 15 min followed by compound washout measured after 2 weeks in presence of surfactant APSA 80 relative to control; format: functional; design: scale not given: the % may be the effect or the level left
Fusarium verticillioides [26] = assay: Antifungal activity against Fusarium verticillioides infected Cavendish banana fruit assessed as reduction in crown rot incubated for 15 min followed by compound washout measured after 1 week in presence of surfactant APSA 80 relative to control; format: functional; design: scale not given: the % may be the effect or the level left
Thielaviopsis paradoxa [27] = assay: Antifungal activity against Ceratocystis paradoxa infected Cavendish banana fruit assessed as reduction in crown rot incubated for 15 min followed by compound washout measured after 1 week in presence of surfactant APSA 80 relative to control; format: functional; design: scale not given: the % may be the effect or the level left
Colletotrichum musae [28] = assay: Growth inhibition of Colletotrichum musae assessed as concentration required for inhibition of mycelial growth incubated for 15 min followed by compound washout measured after 7 days in presence of surfactant APSA 80; format: functional
Lasiodiplodia theobromae [29] = assay: Antifungal activity against Lasiodiplodia theobromae infected Cavendish banana fruit assessed as reduction in crown rot incubated for 15 min followed by compound washout measured after 1 week in presence of surfactant APSA 80 relative to control; format: functional; design: scale not given: the % may be the effect or the level left
Lasiodiplodia theobromae [30] = assay: Antifungal activity against Lasiodiplodia theobromae infected Cavendish banana fruit assessed as reduction in crown rot incubated for 15 min followed by compound washout measured after 2 weeks in presence of surfactant APSA 80 relative to control; format: functional; design: scale not given: the % may be the effect or the level left
Fusarium verticillioides [31] = assay: Antifungal activity against Fusarium verticillioides infected Cavendish banana fruit assessed as reduction in crown rot incubated for 15 min followed by compound washout measured after 1 week in absence of surfactant APSA 80 relative to control; format: functional; design: scale not given: the % may be the effect or the level left
Thielaviopsis paradoxa [32] = assay: Antifungal activity against Ceratocystis paradoxa infected Cavendish banana fruit assessed as reduction in crown rot incubated for 15 min followed by compound washout measured after 2 weeks in absence of surfactant APSA 80 relative to control; format: functional; design: scale not given: the % may be the effect or the level left
Thielaviopsis paradoxa [33] = assay: Antifungal activity against Ceratocystis paradoxa assessed as reduction in colony diameter at 10 to 160 g/l incubated for 15 min followed by compound washout measured after 7 days in absence of surfactant APSA 80 relative to control; format: functional; design: scale not given: the % may be the effect or the level left
Lasiodiplodia theobromae [34] = assay: Antifungal activity against Lasiodiplodia theobromae assessed as reduction in colony diameter at 10 to 160 g/l incubated for 15 min followed by compound washout measured after 7 days in absence of surfactant APSA 80 relative to control; format: functional; design: scale not given: the % may be the effect or the level left
Colletotrichum musae [35] = assay: Antifungal activity against Colletotrichum musae infected Cavendish banana fruit assessed as reduction in crown rot incubated for 15 min followed by compound washout measured after 1 week in absence of surfactant APSA 80 relative to control; format: functional; design: scale not given: the % may be the effect or the level left
Fusarium verticillioides [36] = assay: Antifungal activity against Fusarium verticillioides assessed as reduction in colony diameter at 10 to 160 g/l incubated for 15 min followed by compound washout measured after 7 days in presence of surfactant APSA 80 relative to control; format: functional; design: scale not given: the % may be the effect or the level left
Fusarium verticillioides [37] = assay: Antifungal activity against Fusarium verticillioides infected Cavendish banana fruit assessed as reduction in crown rot incubated for 15 min followed by compound washout measured after 3 weeks in absence of surfactant APSA 80 relative to control; format: functional; design: scale not given: the % may be the effect or the level left; settings: pooled result: one value given for 4 cell lines, strains, targets or settings
Musa acuminata AAA Group [38] = assay: Phytotoxicity against Musa acuminata AAA Group (Cavendish banana) assessed as skin burn incubated for 15 min followed by compound washout measured after 1 to 3 weeks in presence of surfactant APSA 80 relative to control; format: organism-based; settings: in vivo
Musa acuminata AAA Group [39] = assay: Phytotoxicity against Musa acuminata AAA Group (Cavendish banana) assessed as discoloration incubated for 15 min followed by compound washout measured after 1 to 3 weeks in presence of surfactant APSA 80 relative to control; format: organism-based; settings: in vivo
Lasiodiplodia theobromae [40] = assay: Growth inhibition of Lasiodiplodia theobromae assessed as concentration required for inhibition of mycelial growth incubated for 15 min followed by compound washout measured after 7 days in presence of surfactant APSA 80; format: functional
Colletotrichum musae [41] = assay: Antifungal activity against Colletotrichum musae assessed as reduction in colony diameter at 10 to 160 g/l incubated for 15 min followed by compound washout measured after 7 days in presence of surfactant APSA 80 relative to control; format: functional; design: scale not given: the % may be the effect or the level left
Colletotrichum musae [42] = assay: Antifungal activity against Colletotrichum musae assessed as reduction in colony diameter at 10 to 160 g/l incubated for 15 min followed by compound washout measured after 7 days in absence of surfactant APSA 80 relative to control; format: functional; design: scale not given: the % may be the effect or the level left
Thielaviopsis paradoxa [43] = assay: Antifungal activity against Ceratocystis paradoxa infected Cavendish banana fruit assessed as reduction in crown rot incubated for 15 min followed by compound washout measured after 1 week in absence of surfactant APSA 80 relative to control; format: functional; design: scale not given: the % may be the effect or the level left
Lasiodiplodia theobromae [44] = assay: Antifungal activity against Lasiodiplodia theobromae assessed as reduction in colony diameter at 10 to 160 g/l incubated for 15 min followed by compound washout measured after 7 days in presence of surfactant APSA 80 relative to control; format: functional; design: scale not given: the % may be the effect or the level left
Fusarium verticillioides [45] = assay: Antifungal activity against Fusarium verticillioides infected Cavendish banana fruit assessed as reduction in crown rot incubated for 15 min followed by compound washout measured after 3 weeks in presence of surfactant APSA 80 relative to control; format: functional; design: scale not given: the % may be the effect or the level left; settings: pooled result: one value given for 4 cell lines, strains, targets or settings

O=C([O-])O.[Na+]
Activity (Colletotrichum musae [1]): inactive | Activity (Fusarium verticillioides [2]): inactive | Activity (Thielaviopsis paradoxa [3]): inactive | Activity (Colletotrichum musae [4]): inactive | inhibition (Colletotrichum musae [5]): Active | inhibition (Thielaviopsis paradoxa [6]): Active | inhibition (Lasiodiplodia theobromae [7]): Active | inhibition (Thielaviopsis paradoxa [8]): Active | inhibition (Fusarium verticillioides [9]): Active | inhibition (Fusarium verticillioides [10]): Active | Activity (Thielaviopsis paradoxa [11]): inactive | inhibition (Colletotrichum musae [12]): Active | inhibition (Lasiodiplodia theobromae [13]): Active | Activity (Fusarium verticillioides [14]): inactive

O=C([O-])[O-].[Na+].[Na+] [SODIUM CARBONATE]
Activity (Thielaviopsis paradoxa [15]): 25% | Activity (Lasiodiplodia theobromae [16]): 150 g/L | Activity (Lasiodiplodia theobromae [17]): 0% | Activity (Lasiodiplodia theobromae [18]): 0% | Activity (Colletotrichum musae [19]): 0% | Activity (Fusarium verticillioides [20]): 0% | Activity (Fusarium verticillioides [21]): 29% | Activity (Thielaviopsis paradoxa [22]): 85% | Activity (Fusarium verticillioides [23]): 25% | Activity (Colletotrichum musae [24]): 0% | Activity (Colletotrichum musae [25]): 25% | Activity (Fusarium verticillioides [26]): 0% | Activity (Thielaviopsis paradoxa [27]): 0% | Activity (Colletotrichum musae [28]): 80 g/L | Activity (Lasiodiplodia theobromae [29]): 0% | Activity (Lasiodiplodia theobromae [30]): 25% | Activity (Fusarium verticillioides [31]): 0% | Activity (Thielaviopsis paradoxa [32]): 0% | Activity (Thielaviopsis paradoxa [33]): 63% | Activity (Lasiodiplodia theobromae [34]): 54% | Activity (Colletotrichum musae [35]): 0% | Activity (Fusarium verticillioides [36]): 75% | Activity (Fusarium verticillioides [37]): 35% | Activity (Musa acuminata AAA Group [38]): Toxic | Activity (Musa acuminata AAA Group [39]): Toxic | Activity (Lasiodiplodia theobromae [40]): 40 g/L | Activity (Colletotrichum musae [41]): 87% | Activity (Colletotrichum musae [42]): 40% | Activity (Thielaviopsis paradoxa [43]): 0% | Activity (Lasiodiplodia theobromae [44]): 91% | Activity (Fusarium verticillioides [45]): 65%
